In one assay the target is T1, mouse EP3α (Mus musculus, UniProt P30557).
T1 construct: expressed in transfected cells; host or cells: CHO cells
T1 sequence (P30557 1-365): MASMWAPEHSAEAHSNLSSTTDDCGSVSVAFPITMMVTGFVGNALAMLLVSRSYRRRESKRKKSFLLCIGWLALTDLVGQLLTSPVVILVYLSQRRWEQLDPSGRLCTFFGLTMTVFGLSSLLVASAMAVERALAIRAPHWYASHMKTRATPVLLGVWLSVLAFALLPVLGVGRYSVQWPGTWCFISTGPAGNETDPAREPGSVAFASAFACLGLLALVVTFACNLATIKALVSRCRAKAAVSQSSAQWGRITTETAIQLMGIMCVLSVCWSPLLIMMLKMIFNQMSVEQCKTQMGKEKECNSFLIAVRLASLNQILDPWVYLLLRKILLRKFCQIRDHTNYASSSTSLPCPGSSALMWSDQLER
The experiment in a line: Binding assay using expression cell of prostanoids receptor subtype: 3H-PGE2 binding inhibition, EP3α. The conditions noted are these: 2.5 nM 3H-PGE2, CHO cell membrane fraction, pH 6.0, room temperature, 1 hour; read-out: Dissociation Constant Ki, EP3α. The procedure:
(§1) (i) Binding assay using expression cell of prostanoids receptor subtype
(§2) The preparation of membrane fraction was carried out according to the method of Sugimoto et al. [J. Biol. Chem., 267, 6463-6466 (1992)], using expression CHO cell of the prostanoids receptor subtype (mouse EP1, EP2, EP3α, EP4).
(§3) The standard assay mixture containing membrane fraction (0.5 mg/ml), and ^3 H-PGE2 in a final volume of 200 μl was incubated at room temperature for 1 hour. The reaction was terminated by addition of 3 ml of ice-cooled buffer. The mixture was filtered through a GF/B glass filter under reduced pressure. The radioactivity associated with the filter was measured by liquid scintillation counter.
(§4) Kd and Bmax values were determined from Scatchard plots [Ann. N.Y. Acad. Sci., 51, 660 (1949)]. Non-specific binding was calculated as the binding in the presence of an excess (10 μM) of unlabeled PGE2. In the measurement of ^3 H-PGE2 binding inhibitory activity, 2.5 nM of ^3 H-PGE2 and various concentrations of the compounds of the present invention were added. The following buffer was used in all reactions.
(§5) Buffer; 10 mM potassium phosphate (pH 6.0), 1 mM EDTA, 10 mM MgCl2, 0.1 M NaCl.
(§6) The dissociation constant Ki (μM) of each compound was calculated by the following equation.

In another assay the target is T2, mouse EP1 (Mus musculus, UniProt P35375).
T2 construct: expressed in transfected cells; host or cells: CHO cells
T2 sequence (P35375 1-405): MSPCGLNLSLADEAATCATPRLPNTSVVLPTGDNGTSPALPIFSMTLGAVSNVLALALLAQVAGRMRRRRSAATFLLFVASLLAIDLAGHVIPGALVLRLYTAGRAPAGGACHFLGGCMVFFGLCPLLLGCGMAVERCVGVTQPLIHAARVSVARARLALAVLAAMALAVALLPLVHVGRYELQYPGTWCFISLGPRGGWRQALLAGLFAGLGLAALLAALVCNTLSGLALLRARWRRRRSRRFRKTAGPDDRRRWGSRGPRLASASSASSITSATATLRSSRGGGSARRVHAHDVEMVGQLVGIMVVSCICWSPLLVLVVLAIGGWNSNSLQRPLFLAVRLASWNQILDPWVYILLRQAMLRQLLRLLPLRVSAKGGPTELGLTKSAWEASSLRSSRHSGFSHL
The experiment in a line: Binding assay using expression cell of prostanoids receptor subtype: 3H-PGE2 binding inhibition, EP1. The conditions noted are these: 2.5 nM 3H-PGE2, CHO cell membrane fraction, pH 6.0, room temperature, 1 hour; read-out: Dissociation Constant Ki, EP1. The procedure: as §1, §2, §3, §4, §5, §6

For the next assay, the target named is T3, mouse EP2 (Mus musculus, UniProt Q62053).
T3 construct: expressed in transfected cells; host or cells: CHO cells
T3 sequence (Q62053 whole entry): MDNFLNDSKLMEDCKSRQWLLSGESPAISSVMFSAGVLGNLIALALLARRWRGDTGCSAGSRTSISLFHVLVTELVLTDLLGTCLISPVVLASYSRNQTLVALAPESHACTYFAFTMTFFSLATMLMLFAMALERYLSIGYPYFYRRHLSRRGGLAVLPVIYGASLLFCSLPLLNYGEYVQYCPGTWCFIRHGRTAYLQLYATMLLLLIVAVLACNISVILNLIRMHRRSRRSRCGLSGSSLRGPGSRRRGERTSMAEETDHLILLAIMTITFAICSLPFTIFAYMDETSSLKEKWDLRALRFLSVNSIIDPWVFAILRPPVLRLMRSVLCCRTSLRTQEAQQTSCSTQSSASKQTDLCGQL
Put plainly: Binding assay using expression cell of prostanoids receptor subtype: 3H-PGE2 binding inhibition, EP2. The note with it: 2.5 nM 3H-PGE2, CHO cell membrane fraction, pH 6.0, room temperature, 1 hour; read-out: Dissociation Constant Ki, EP2. The procedure:
as §1, §2, §3, §4, §5, §6

The next assay has as its target T4, mouse EP4 (Mus musculus, UniProt P32240).
T4 construct: expressed in transfected cells; host or cells: CHO cells
The experiment in a line: Binding assay using expression cell of prostanoids receptor subtype: 3H-PGE2 binding inhibition, EP4. The conditions noted are these: 2.5 nM 3H-PGE2, CHO cell membrane fraction, pH 6.0, room temperature, 1 hour; read-out: Dissociation Constant Ki, EP4. The procedure:
as §1, §2, §3, §4, §5, §6

T4 sequence (P32240 whole entry): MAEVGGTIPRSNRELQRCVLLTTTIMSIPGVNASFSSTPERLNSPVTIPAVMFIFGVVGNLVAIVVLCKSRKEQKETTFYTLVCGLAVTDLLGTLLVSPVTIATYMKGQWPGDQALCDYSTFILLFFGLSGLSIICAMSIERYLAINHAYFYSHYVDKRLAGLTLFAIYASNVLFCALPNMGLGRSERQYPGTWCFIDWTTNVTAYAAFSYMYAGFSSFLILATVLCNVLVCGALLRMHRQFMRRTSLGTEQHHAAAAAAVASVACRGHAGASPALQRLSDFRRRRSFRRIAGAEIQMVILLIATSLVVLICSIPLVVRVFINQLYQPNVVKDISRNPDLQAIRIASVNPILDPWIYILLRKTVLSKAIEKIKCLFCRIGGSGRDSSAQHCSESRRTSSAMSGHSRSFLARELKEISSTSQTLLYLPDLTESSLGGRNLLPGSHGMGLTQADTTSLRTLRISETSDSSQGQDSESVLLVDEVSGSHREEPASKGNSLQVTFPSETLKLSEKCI

As a reminder, the Ki is the equilibrium dissociation constant of an inhibitor or competing ligand from its target. `CCC1([C@@H](O)C/C=C/[C@@H]2[C@@H](CCCCCCC(=O)O)[C@H](F)C[C@H]2O)CCC1` [Example 2(a), (9β,11α,16α)-9-Fluoro-11,16-dihydroxy-17,17-propano-20-norprosta-13E-enoic acid]: the Ki on mouse EP3α is more than 10 µM; on mouse EP1, more than 10 µM; on mouse EP2, 0.066 µM; at mouse EP4, more than 10 µM.
On to `CCC1([C@@H](O)C/C=C/[C@@H]2[C@@H](CCCCCCC(=O)O)[C@H](Cl)C[C@H]2O)CCC1` [Example 2, (9β,11α,16α)-9-Chloro-11,16-dihydroxy-17,17-propano-20-norprosta-13E-enoic acid], for which the Ki on mouse EP3α was more than 10 µM; at mouse EP1, 5.7 µM; at mouse EP2, 0.0081 µM; on mouse EP4, 1.7 µM.
For the compound `CCC1([C@@H](O)CCC[C@@H]2[C@@H](CCCCCCC(=O)O)[C@H](Cl)C[C@H]2O)CCC1` [Example 3(a), (9β,11α,16α)-9-Chloro-11,16-dihydroxy-17,17-propano-20-norprostanoic acid], the Ki at mouse EP3α was more than 10 µM; on mouse EP1 it was 3.5 µM; on mouse EP2 it was 0.017 µM; at mouse EP4 it was more than 10 µM.

Source of the values: patent US6235780A, “ω-cycloalkyl-prostaglandin E1 derivatives” (Ono Pharmaceutical Co., Ltd., priority 1998, dated 2001).
